Among the data in BindingDB's records for doi:10.1016/s0960-894x(98)00106-1 (Oregon State University, 1999) are IC50 values, retold here.

Molecules are shown by their SMILES. pIC50: −log10 of the molar value.

The nature of the test: Compound was evaluated for the inhibition of L-pipecolate oxidase(LPO) isolated from frozen Rhesus monkey liver.

By pIC50 is commonly meant the IC50 on a negative log10 scale, so that one unit is a factor of ten. Compound `O=C(O)[C@H]1NC[C@@H]2O[C@@H]21` [(1R,2S,5S)-6-Oxa-3-aza-bicyclo[3.1.0]hexane-2-carboxylic acid] had a pIC50 of 3.70.
